Measured values from patent US20240167037A1, “CANCER THERAPY” (NATIONAL UNIVERSITY CORPORATION KOBE UNIVERSITY, priority 2021, published 2024).

Assays:
Assay type in all cases: cell-based, human
MDA-MB-231 cells [1] = assay: In vitro invasion assay (BioCoat Matrigel Invasion Chambers); conditions: MβCD 4 mM, calyculin A 0.5 nM; drugs added in both sides; 24 h; FIG. 10b
Experimental: In vitro invasion and migration assays. For invasion and migration assays, we used BioCoat Matrigel Invasion Chambers (Corning) and 8.0 μm PET trans-migration inserts (Corning), respectively. In the invasion assay, 1×10^5 cells were suspended in serum-free medium and seeded on top of the chamber's membrane, in which medium containing serum was placed at the bottom. For MβCD or calyculin A treatment, drugs were added in both sides. Low-invasive epithelial (MCF10A, AU565, and MCF7) cells and MDA-MB-231 cells were incubated for 36 h and 24 h, respectively, and then fixed in 4% formaldehyde. Invaded cells were imaged using a BZ-X700 microscope (Keyence) with 10× magnification and counted. In the migration assay, 5×10^4 cells were seeded on top of the PET membrane, incubated for 24 h, and analyzed as described for the invasion assay. For the quantification of invasive structures grown in 3D on-top culture (FIGS. 5a and b), the elongated mesenchymal-like and rounded morphologies were defined as invasive and non-invasive phenotypes, respectively, and quantified.

MDA-MB-231 cells [2] = assay: Tether force measurement with optical tweezers and estimation of PM tension; conditions: MβCD 4 mM vs mock (FIG. 10c), MA-ezrin expression vs parental (FIG. 4a)
Experimental: Tether force measurement with optical tweezers and the estimation of PM tension. Tether force measurements were performed with an optical tweezers system (NanoTracker™ 2, JPK Instruments) equipped with an infrared (IR) laser source (3 W, 1064 nm) on an Olympus IX-73 inverted microscope with a 60×(numerical aperture=1.2) water immersion objective (Olympus). Silica beads (1.5 μm diameter, Polysciences) were incubated with concanavalin A (Sigma-Aldrich) at 1 mg/ml for 1 h. Cells were plated onto glass-bottom dishes (WPI). Coated beads were added to the cell culture medium supplemented with 25 mM HEPES (pH 7.5), and experiments were performed at 37° C. Tether force (F) can be calculated using Hooke's law: F=kΔx, where k is the stiffness of the trap and Δx is the displacement of the bead from the trap center. […] The displacement of the bead in the trap center (Δx) was determined by a quadrant photodiode detector with high precision (the resolution less than 1 nm). […] To compare PM tension between non-motile epithelial cells and malignant cells, we measured the tethering force on the lateral sides of cells. […]
PM tension can be estimated with the following formula: T=Ftether^2/8Bπ^2, where T is the apparent plasma membrane tension (PM tension), Ftether is the tether force measured by optical tweezers, and B is the bending stiffness of the membrane. […]

[3] = test system: GFP-FBP17 in MDA-MB-231 cells; assay: Confocal quantification of GFP-FBP17 puncta at the plasma membrane; conditions: FIG. 5g, 11c, 11e
Experimental: Confocal microscopy, live-cell imaging, and image analysis. For immunofluorescence analysis, cells were fixed with 4% formaldehyde in phosphate-buffered saline (PBS) for 10 min and permeabilized with 0.2% Triton X-100 for 10 min in PBS. Cells were blocked with 5% goat serum (Sigma-Aldrich) in PBS for 1 h and were incubated with primary antibodies for at least 3 h. Then, cells were incubated with secondary antibodies for 1 h. For membrane visualization, Alexa Fluor™ 350 conjugated wheat germ agglutinin (WGA) (Thermo Scientific) was incubated with fixed cells for 30 min before permeabilization. For visualization of F-actin, Alexa Fluor™ 568 Phalloidin (Thermo Scientific) was incubated with fixed cells for 30 min. Fluorescence images were captured using a confocal microscopy system (FluoView 1000-D; Olympus) equipped with 405-, 473-, and 568-nm diode lasers through an objective lens (60× oil immersion objective, NA=1.35). […] The aspect ratio was determined as a ratio of the major cell axis length to minor cell axis length, which was calculated automatically by Image J. We observed that elongated cells typically have an aspect ratio of 5-8, whereas that of amoeboid cells is 2-3. […] The mean intensity of pERM or F-actin all along the membrane regions was then calculated and divided by their mean intensities throughout the cytosol (avoiding the nucleus). […]

Molecule | invasive ability (drug-treated cells that invaded through Matrigel) (MDA-MB-231 cells [1]) | PM tension (estimated from tether force) (MDA-MB-231 cells [2]) | recruitment / accumulation of GFP-FBP17 at the PM [3]
COC[C@@H]([C@H](O)[C@H](O)C(=O)NCC[C@H](C)c1nc(/C=C/C[C@@H]2O[C@]3(C[C@@H](O)[C@@H]2C)O[C@H]([C@H](C[C@H](O)[C@H](C)[C@H](O)[C@H](C)/C=C(C)/C(C)=C/C=C/C(C)=C\C#N)OC)[C@H](OP(=O)(O)O)C3(C)C)co1)N(C)C [calyculin A] | no effect | – | –
methyl-β-cyclodextrin [MβCD] | significantly reduced | increases | sufficient to prevent
